{"source": "patent US11883503B2", "about": "“Methods and compositions for cancer treatment” (DINGFU BIOTARGET CO., LTD., priority 2017, dated 2024)", "test_system": "peripheral blood lymphocytes", "assay": "Flow cytometry of CD4+ and CD8+ lymphocytes in peripheral blood after FTY720", "assay_type": "in vivo, mice", "conditions": "3 days after first administration of FTY720", "experimental": "FTY720 (SIGMA, Cat #SML0700-5MG) was used to test activation of T cells in the tumor microenvironment. FTY720 is a lipophilic immunomodulatory sphingosine-1-phosphate analog, it induces severe peripheral blood lymphopenia and sustains lymphopenia in mice by preventing lymphocytes to egress from lymph organs through agonist-induced receptor internalization.\nB16-EGFR-SIY cells were inoculated s.c. into the both flanks of mice. […] Then 3 days later, after the first administration of depletion antibodies or FTY720, lymphocytes suspensions were prepared from their peripheral blood, and labeled with APC-anti-mCD4 (clone GK1.5, BioLegend), FITC-anti-mCD8a (clone 53-6.7, BioLegend), FITC-anti-mCD3 (clone 17A2, BioLegend), or APC-anti-mNK1.1 (clone PK136, BioLegend). Tumor volumes on the both flanks were measured and monitored. Samples were analyzed on a Life Attune Flow Cytometer (Life), and data were analyzed. Representative data is shown in FIG. 6C-6F, based on results obtained from three experiments conducted with 5-6 mice per group."}
{"smiles": "CCCCCCCCc1ccc(CCC(N)(CO)CO)cc1", "note": "[FTY720]", "values": [{"measurement": "relative number of CD4+ T cells in peripheral blood", "result": "~1.5", "unit": "%"}, {"measurement": "relative number of CD8+ T cells in peripheral blood", "result": "about 0.5%"}]}
